Results on one substance are retold here after US20050070519A1, “Cyclisation process for the preparation of c-2 beta-lactam compounds” (priority 2001, published 2005).

In the test the target is T1, BLS (β-lactam synthetase), polyhistidine tagged (Streptomyces clavuligerus, UniProt P0DJQ7).
T1 construct: made in house; host or cells: E. coli BL21(DE3), co-expressed with chaperonin GroELS
T1 sequence (P0DJQ7 1-513): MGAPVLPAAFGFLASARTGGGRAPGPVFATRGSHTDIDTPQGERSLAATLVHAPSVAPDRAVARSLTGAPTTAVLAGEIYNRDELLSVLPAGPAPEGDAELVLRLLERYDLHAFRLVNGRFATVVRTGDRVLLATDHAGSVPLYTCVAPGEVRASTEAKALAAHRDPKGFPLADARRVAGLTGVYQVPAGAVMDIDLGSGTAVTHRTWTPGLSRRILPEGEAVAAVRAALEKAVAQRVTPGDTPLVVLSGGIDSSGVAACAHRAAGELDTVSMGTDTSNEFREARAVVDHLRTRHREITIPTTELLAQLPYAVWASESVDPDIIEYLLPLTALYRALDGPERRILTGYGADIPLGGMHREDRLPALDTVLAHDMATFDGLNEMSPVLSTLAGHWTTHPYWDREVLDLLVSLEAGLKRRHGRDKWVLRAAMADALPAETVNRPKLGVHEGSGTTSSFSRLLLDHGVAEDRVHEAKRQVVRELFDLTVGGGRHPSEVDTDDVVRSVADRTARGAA
Nature of the test: fluorescence detection pre-column derivatised HPLC substrate assay with polyhistidine tagged BLS. It counts as biochemical. The source says:
The bls gene has previously been expressed at relatively low levels using a pET24a(+) construct and purified by an involved two column protocol giving low overall yields (McNaughton, H. J.; Thirkettle, J. E.; Zhang, Z. H.; Schofield, C. J.; Jensen, S. E.; Barton, B.; Greaves, P. J. Chem. Soc., Chem. Commun. 1998, 2325-2326; Bachmann, B. O.; Townsend, C. A. Biochemistry 2000, 39, 11187-11193). To facilitate purification a polyhistidine tagged form of BLS (β-lactam synthetase) was produced by cloning bis into the pET28a(+) vector (from Novagen). […]
The bls gene in the vector pET28a(+) and a plasmid bearing the chaperonin GroELS^13 were simultaneously transformed into E. coli BL21(DE3) for co-expression. […] When the absorbance at 600 nm reached ˜1.0, IPTG was added to a final concentration of 1.0 mM and the cells harvested 16 hours later by centrifugation. […]
The 2-methylated substrate analogue (6) was initially assayed as a substrate for BLS using a fluorescence detection pre-column derivatised HPLC assay based on the work of Kai et al (Kai, M.; Miyazaki, T.; Yamaguchi, M.; Ohkura, Y. J. Chromatogr. 1983, 425-436). […]
Reactions were incubated at 37° C. for 15 minutes and then derivatised. […] Fluorescence was measured at 425 nm against 325 nm excitation. […]

Take 2-Methyl CEA: the “relative substrate efficiency of the two 2-methyl epimers” value (larger scale incubation, product isolated by HPLC, 1H NMR (500 MHz) analysis) is recorded as “both epimers are approximately equally efficient substrates”. The “conversion of 2-methyl CEA (6) to 2-methyl DGPC (9)” value (standard assay conditions: 2 mM substrate, 5 mM ATP, 10 mM MgCl2, pH 9, ca. 74 μg enzyme, 37° C., 15 minutes) is listed as “ca. 50%”.
